Values of other authors, collected in US7713569B2, “Hydroxytyrosol-rich composition from olive vegetation water and method of use thereof” (Creagri, Inc., priority 2000, dated 2010).

How the values were obtained:
[1] = system: various human cellular systems; conditions: Manna et al., 2000
platelet aggregation = conditions: Petroni et al., 1995
[2] = humans; Visioli et al., 2000
5-lipoxygenase = conditions: de la Puerta et al., 1999; Kohyama et al., 1997
[3] = system: low density lipoprotein (LDL) oxidation; conditions: Visioli and Galli, 1998
[4] = system: peroxynitrite dependent DNA base modification and tyrosine nitration; conditions: Deiana et al., 1999
12-lipoxygenase = conditions: de la Puerta et al., 1999; Kohyama et al., 1997

## OCCc1ccc(O)c(O)c1 [hydroxytyrosol, 3,4-dihydroxyphenethyl alcohol]
[1]
  cytotoxicity induced by reactive oxygen species: counteracts
Platelet aggregation
  platelet aggregation: prevents
[2]
  absorption following ingestion: dose-dependently absorbed
5-lipoxygenase
  inhibition of 5-lipoxygenase: inhibits
[3]
  LDL oxidation: prevents
[4]
  effect on peroxynitrite dependent DNA base modification and tyrosine nitration: inhibitory effect
12-lipoxygenase
  inhibition of 12-lipoxygenase: inhibits
